Test results published in patent US20110105393A1, “METHODS FOR PROMOTING STEM CELL PROLIFERATION AND SURVIVAL” (priority 2007, published 2011).

Assays:
adult rat SVZ NSCs = test: Expansion of adult rat SVZ NSC / neural precursor cultures; type: cell-based
Protocol: (§1) Cell culture: E13.5 cortical embryonic mouse CNS stem cells were grown as previously described (Johe, et al., Genes Dev 10, 3129-40, 1996). Cells were expanded in serum-free DMEM/F12 medium with N2 supplement and FGF2 (20 ng/ml) for 5 days under 5% oxygen conditions and were re-plated fresh or from frozen stocks at 1,000-10,000 cells per cm^2. FGF2 was included throughout the studies, unless otherwise stated. Adult rat (3-6 months old) or adult mouse (2-4 months old) SVZ NSC cultures were grown in the same medium as the fetal cultures.
(§2) Pharmacological treatments: Unless otherwise stated, the following concentrations were used: Dll4 and Ang-2 (in vitro, 500 ng/ml; in vivo 12.5 μg as a single injection), FGF2 (in vitro, 20 ng/ml), JAK inhibitor (in vitro, 200 nM; in vivo, 250 ng as a single injection), insulin (in vitro, 25 μg/ml; in vivo, 40 μg as a single injection), DAPT (1 μM), Fluorogold (0.5 μg). For the survival assays, compounds were added daily and Notch ligands every 2 days for the duration of the experiment. For the effects of kinase inhibitors on Notch activation, cells were pre-incubated for 1 h prior to Notch activation.
as §1, with “Culture:” for “culture:”, “(Johe” for “(Johe,”, “3129,” for “3129-40,”, “our experiments,” for “the studies,”, “Neural Stem Cell (NSC)” for “NSC”
Pharmacological treatments: Unless otherwise stated, we used the following concentrations: Dll4 and Ang2 (in vitro, 500 ng/ml; in vivo 12.5 μg as a single injection), FGF2 (in vitro, 20 ng/ml), JAK inhibitor (in vitro, 200 nM; in vivo, 250 ng as a single injection), insulin (in vitro, 25 μg/ml; in vivo, 40 μg as a single injection), DAPT (1 μM), Fluorogold (0.5 μg). […]

Ang-1 = Ang-1 expression in fetal NSC cultures; type: cell-based, mouse; settings: fetal NSCs in culture, treatment 2 days
Protocol: as §1
Fetal NSCs in culture express Ang-1, and treatment (2 days) with Dll4 maintained it whereas CNTF reduced it. Ang-2 expression was maintained under these conditions. […] Ang-2 induced mTOR and STAT3-S727 phosphorylation, unlike Ang-1 (FIG. 2a). Ang-1, however, induced Akt phosphorylation.

Hes3 = Hes3 protein immuno-staining in fetal NSC cultures; type: cell-based, mouse; settings: 2 day treatment
Protocol: as §1
Hes3 mRNA is present in fetal NSC cultures under conditions that support their self-renewal but CNTF-induced differentiation (Bonni, A. et al., Science 278, 477-83, 1997; Rajan & McKay, J Neurosci 18, 3620-9, 1998): downregulates Hes3 message (Androutsellis-Theotokis, A. et al., Nature 442, 823-6, 2006). Knockout studies have shown a role of Hes3 in self-renewal (Hatakeyama, J. et al., Development 131, 5539-50, 2004). It was investigated if Hes3 mediates stem cell functions in vitro to assess its use as a functional NSC marker. Fetal (E13.5) cortical tissue was dissociated and magnetic sorting was used to isolate a cell population that expressed AC133, an established marker of NSCs (Uchida, N. et al., Proc Natl Acad Sci USA 97, 14720-5, 2000). […]

Notch receptor = Notch receptor cleavage (activation) in NSC cultures; type: cell-based, mouse
Protocol: as §1, §2
It was previously shown that in NSCs Notch activation leads to rapid phosphorylation of Akt (Androutsellis-Theotokis, A. et al., Nature 442, 823-6, 2006), a mediator of insulin signalling (Cantley, Science 296, 1655-7, 2002). […] Activation of the Notch receptor by addition of insulin or Dll4 was inhibited by DAPT, a γ-secretase inhibitor that blocks Notch cleavage. […] Insulin maintained STAT3-Ser727 phosphorylation levels, and acutely (1-h) induced it following a 16-h insulin withdrawal phase (FIG. 1c).

Ang-2: human angiopoietin-2 (623-AN) from R&D; antagonist for angiopoietin-1 at Tie2
generation of adult rat SVZ NSCs in vitro (adult rat SVZ NSCs; 0.5 μg/ml, 5-d (FIG. 2b)): profoundly increased | colony formation and overall cell numbers (adult rat SVZ NSCs; adult rat SVZ NSC cultures treated with Dll4): significantly increased | increase in the numbers of proliferating cells (adult rat SVZ NSCs; cells from adult SVZ in culture, added to Dll4, insulin and FGF2, p=2.15×10^−5 (FIG. 10b)): 7 fold

Dll4: Notch ligand Delta-like 4; mouse Dll4 (1389-D4) from R&D
Ang-1 expression (Ang-1): maintained | Hes3 protein expression (Hes3): maintained

insulin: insulin (Sigma, 19278), growth factor
Notch activation (Notch receptor; acute (1 h) treatment after insulin withdrawal for 2 days): induced Notch activation | cleavage (activation) of the Notch receptor (Notch receptor; treatment of NSC cultures): induced cleavage
